Converted amounts (≈) assume the structure as drawn. The source made the active and inactive calls. The calls are words filed in the database; no cut-off is given here.
Legend:
[1] = (§1) Inhibition of Staphylococcus aureus Fab1
Staphylococcus aureus [2] = test: as §1
Staphylococcus aureus [3] = test: Antibacterial activity against Staphylococcus aureus RN4220; type: functional
Staphylococcus aureus [4] = test: Antibacterial activity against methicillin-resistant Staphylococcus aureus CCARM 3167; type: functional
Bacillus cereus = test: Antibacterial activity against Bacillus cereus KCTC 1661; type: functional
Escherichia coli = test: Antibacterial activity against Escherichia coli KCTC 1683; type: functional, organism-based
Pseudomonas aeruginosa = test: Antibacterial activity against Pseudomonas aeruginosa KCTC 2004; type: functional, organism-based

| Structure (SMILES) | IC50 [1] [nM] | inhibition (Staphylococcus aureus [2]) | MIC (Staphylococcus aureus [3]) [µg/mL] | MIC (Staphylococcus aureus [4]) [µg/mL] | MIC (Bacillus cereus) [µg/mL] | Activity (Escherichia coli) | Activity (Pseudomonas aeruginosa) |
| --- | --- | --- | --- | --- | --- | --- | --- |
| COc1cc(O)c2c(=O)oc3cc(O)c(O)c(-c4c(O)c(O)cc5oc(=O)c6c(O)cc(OC)cc6c45)c3c2c1 [VERRULACTONE A] | 920 | Dose-dependent effect | 8 (≈ 14.6 µM) | 8 (≈ 14.6 µM) | 8 (≈ 14.6 µM) | inactive | inactive |
| COc1cc(O)c2c(=O)oc3c(-c4c(O)c(O)cc5oc(=O)c6c(O)cc(OC)cc6c45)c(O)c(O)cc3c2c1 [VERRULACTONE B] | 1410 | – | 16 (≈ 29.3 µM) | 16 (≈ 29.3 µM) | – | – | – |

From ChEMBL document CHEMBL2010715, “Verrulactones A and B, new inhibitors of Staphylococcus aureus enoyl-ACP reductase produced by Penicillium verruculosum F375” (Bioorg Med Chem Lett, 2012)
